Results from patent publication US9567623B2, “Coelenterazine analogs” (JNC CORPORATION, priority 2013, dated 2017).

Legend:
[1] = Stability of coelenterazine analogs in aqueous solution (HPLC); assay type: physicochemical; details: 30 mM Tris-HCl (pH 7.6)
Procedure: The stability of coelenterazine analogs in an aqueous solution was examined by dissolving 10 μg of coelenterazine analogs in 0.5 mL of 30 mM Tris-HCl (pH 7.6), allowing the solution to stand at 37° C. for 22 hours, and then the degradation of coelenterazine analogs was determined by HPLC analysis. The HPLC analysis was performed by the modified method as described in Inouye S. et al. (2013) Protein Express. Purif. 88, 150-156.

Renilla luciferase = target: T1, Renilla luciferase (Renilla reniformis, UniProt P27652); experiment: Substrate specificity of various luciferases: Renilla luciferase; assay type: biochemical; details: relative to coelenterazine = 100
T1 construct: made in house
T1 sequence (P27652 1-311): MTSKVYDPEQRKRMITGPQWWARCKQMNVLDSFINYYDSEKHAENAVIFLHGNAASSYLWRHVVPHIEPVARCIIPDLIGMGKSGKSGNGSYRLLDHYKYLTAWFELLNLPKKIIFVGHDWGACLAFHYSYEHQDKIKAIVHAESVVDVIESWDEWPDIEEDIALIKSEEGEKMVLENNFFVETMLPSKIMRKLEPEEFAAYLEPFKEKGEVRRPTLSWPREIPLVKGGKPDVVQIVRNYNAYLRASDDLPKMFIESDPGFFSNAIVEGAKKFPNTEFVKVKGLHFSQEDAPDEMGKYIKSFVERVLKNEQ
Procedure: (§1) The preparation of various luciferases and the determination of their luminescence activities were carried out in accordance with the methods as previously reported. The catalytic 19 kDa domain of Oplophorus luciferase was produced by the method described in Inouye S. & Sasaki S. (2007) Protein Express. Purif. 56, 261-268, Gaussia luciferase by the method described in Inouye S & Sahara Y. (2008) Biochem. Biophys. Res. Commun. 368, 600-605, Renilla luciferase and Renilla luciferase 547 by the method described in Inouye S. et al. (2013) Protein Express. Purif. 88, 150-156, and aequorin by the method described in Inouye S et al. (2010) Anal. Biochem. 407, 247-252, respectively, and used.

[2] = target: T2, nanoKAZ (mutated catalytic 19 kDa domain of Oplophorus luciferase) (Oplophorus gracilirostris, UniProt Q9GV45, A31E/A60N/A81I/F95D/I117V/K70R/L54V/L99Q/M102K/N193R/P142E/Q151K/Q38R/Q45L/V71I/Y165I); experiment: Luminescence activity of secreted codon-optimized nanoKAZ domain protein with coelenterazine analogs as substrates; assay type: biochemical; details: for Luminescence pattern (decay): FIG. 3, recombinant nanoKAZ; for Relative maximum luminescence intensity (Imax) / Relative amount of integrated luminescence intensity (1 min.): relative to coelenterazine = 1.0; for Relative maximum luminescence intensity (Imax): 1 μg substrate, 50 mM Tris-HCl (pH 7.6)-10 mM EDTA, 60 seconds; for Relative amount of integrated luminescence intensity (1 min.): integrated for 60 seconds
T2 construct: secretory signal peptide of Gaussia luciferase (GLsp) (N, cleaved yes); made in house; host or cells: CHO-K1 transiently transfected with pcDNA3-GLsp-nanoKAZ; unpurified culture medium used as the enzyme solution
T2 sequence (Q9GV45 other isoform, or with tags, fused parts or gaps with the stated changes): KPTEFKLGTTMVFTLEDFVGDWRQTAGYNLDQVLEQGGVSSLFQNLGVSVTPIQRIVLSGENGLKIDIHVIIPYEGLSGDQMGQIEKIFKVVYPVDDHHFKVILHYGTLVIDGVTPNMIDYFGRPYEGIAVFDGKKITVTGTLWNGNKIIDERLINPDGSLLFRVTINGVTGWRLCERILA
Procedure: The Chinese hamster ovary-derived cell line CHO-K1 was cultured in Ham's F-12 medium (manufactured by Wako Pure Chemical Industries, Ltd.) containing 10% (v/v) calf fetal serum (manufactured by Biowest Inc.), and cultured in DMEM (manufactured by Wako Pure Chemical Industries, Ltd.) containing 10% (v/v) calf fetal serum (manufactured by Biowest Inc.). The respective cells were seeded in a 6-well culture plate (n=2) with 1×10^5 cells/well/2 mL medium, and cultured in an incubator at 37° C. in 5% CO2, respectively. After 24 hours, the purified pcDNA3-GLsp-nanoKAZ plasmid was transfected into CHO-K1 cells using a FuGene HD Transfection Kit (manufactured by Promega Corp.), which was used in the subsequent experiment. Specifically, 1 μg of the pcDNA3-GLsp-nanoKAZ expression vector and 3 μL of FuGene HD were added to 100 μL of medium, which was allowed to stand at room temperature for 15 minutes. Then 100 μL of the DNA-FuGene complex solution was added to the cells in the 6 wells. After incubation for 48 hours, the culture medium was recovered and used as the secreted nanoKAZ enzyme solution for assay.
The enzyme solution, 5 μL, for assay obtained in EXAMPLE 4 (2) was added to 100 pt of 50 mM Tris-HCl (pH 7.6)-10 mM EDTA (Wako Pure Chemical Industries) containing 1 μg each of various coelenterazine analogs to initiate the luminescence reaction. The luminescence activity was determined by a luminometer (AB2200, manufactured by Atto Company) for 60 seconds and expressed by the maximum luminescence intensity (Imax) and the relative light units (du) of the lumimescence intensity integrated for 60 seconds.
The coelenterazine analogs used for substrate specificity analysis except for the analog described in EXAMPLE 1 were synthesized by the methods as described in the journals below, respectively. Specifically, bis-coelenterazine was synthesized by the method described in Nakamura et al. (1997) Tetrahedron Lett. 38: 6405-6406; Furimazine (Compound No. 3939 referred to in the journal) and C6d-coelenterazine (Compound No. 3840 referred to in the journal) by the method described in Hall et al. (2012) ACS Chem. Biol. […]; and the C2-coelenterazine analogs by the method described in Inouye et al (2010) Anal. Biochem. 407: 247-252. The enzyme solution of the culture medium in which nanoKAZ was secreted by the method as described in EXAMPLE 4 (2) was used for determining the luminescence activity with coelenterazine or its analogs. […] As a result, the luminescence substrates which can markedly improve the luminescence intensity and the amount of the integrated luminescence intensity to compare with furimazine are bis-coelenterazine and C6d-f-coelenterazine, showing a continuous luminescence without a decay of the luminescence intensity.

[3] = target: T3, Catalytic 19 kDa domain of Oplophorus luciferase (Oplophorus gracilirostris, UniProt Q9GV45); experiment: Substrate specificity of various luciferases: catalytic 19 kDa domain of Oplophorus luciferase; assay type: biochemical, Oplophorus grachlorostris; details: for Maximum Luminescence Intensity (Imax, %) / Relative Amount of Integrated Luminescence Intensity (1 min, %): relative to coelenterazine = 100
T3 construct: The catalytic 19 kDa domain of Oplophorus luciferase was produced by the method described in; made in house
T3 sequence (Q9GV45 28-196): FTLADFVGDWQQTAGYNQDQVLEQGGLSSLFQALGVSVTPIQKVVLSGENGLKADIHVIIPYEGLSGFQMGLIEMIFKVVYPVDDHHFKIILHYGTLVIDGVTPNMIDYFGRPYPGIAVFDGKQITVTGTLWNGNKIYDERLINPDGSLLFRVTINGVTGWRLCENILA
Procedure: as §1

Renilla luciferase 547 = experiment: Substrate specificity of various luciferases: Renilla luciferase 547; assay type: biochemical; details: relative to coelenterazine = 100
Procedure: as §1

Aequorin = target: T4, Aequorin (Aequorea victoria, UniProt P07164); assay type: biochemical, jellyfish; details: relative to coelenterazine = 100
T4 construct: made in house
T4 sequence (P07164 8-196): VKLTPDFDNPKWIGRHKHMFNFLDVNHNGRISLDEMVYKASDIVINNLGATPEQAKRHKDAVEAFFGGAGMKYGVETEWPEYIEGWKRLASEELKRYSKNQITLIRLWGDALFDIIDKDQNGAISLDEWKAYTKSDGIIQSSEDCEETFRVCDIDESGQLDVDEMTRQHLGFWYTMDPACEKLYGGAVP
Procedure: as §1

Gaussia luciferase = experiment: Substrate specificity of various luciferases: Gaussia luciferase; assay type: biochemical; details: relative to coelenterazine = 100
Procedure: as §1

[4] = incubation time at 37° C. 0 hour
[5] = incubation time at 37° C. 22 hours

| Compound | Residual Ratio of Coelenterazine Analog (%) [1, 4] [%] | Residual Ratio of Coelenterazine Analog (%) [1, 5] [%] | Maximum Luminescence Intensity (Imax, %) (Renilla luciferase) [%] | Relative Amount of Integrated Luminescence Intensity (1 min, %) (Renilla luciferase) | Luminescence pattern (decay) [2] | Relative maximum luminescence intensity (Imax) [2] | Relative amount of integrated luminescence intensity (1 min.) [2] | Suitability as substrate ([3]; in words, from TABLE 2) | Maximum Luminescence Intensity (Imax, %) [3] [%] | Relative Amount of Integrated Luminescence Intensity (1 min, %) [3] | Maximum Luminescence Intensity (Imax, %) (Renilla luciferase 547) [%] | Relative Amount of Integrated Luminescence Intensity (1 min, %) (Renilla luciferase 547) | Maximum Luminescence Intensity (Imax, %) (Aequorin) [%] | Relative Amount of Integrated Luminescence Intensity (1 min, %) (Aequorin) | Maximum Luminescence Intensity (Imax, %) (Gaussia luciferase) [%] | Relative Amount of Integrated Luminescence Intensity (1 min, %) (Gaussia luciferase) |
| --- | --- | --- | --- | --- | --- | --- | --- | --- | --- | --- | --- | --- | --- | --- | --- | --- |
| O=c1c(Cc2ccc(F)cc2)nc2c(Cc3ccccc3)[nH]c(-c3ccccc3)cn1-2 [C6d-f-Coelenterazine, C6d-f-coelenterazine] | 100 | 49 | 0.07 | (0.01) % | did not exhibit a rapid decay | 10.1 | 10.1 | good substrate | 100 | (105) % | 0.17 | (0.13) % | 0.12 | (0.19) % | 0 | (0) % |
| O=c1c(Cc2ccco2)nc2c(Cc3ccccc3)[nH]c(-c3ccccc3)cn1-2 [Furimazine] | 100 | 3 | 0.01 | (0.01) % | did not exhibit a rapid decay | 5.5 | 5.7 | – | 72.2 | (65.2) % | 0.01 | (0.01) % | 0.02 | (0.02) % | 0 | (0) % |
| O=c1c(Cc2ccc(F)cc2)nc2c(Cc3ccccc3)[nH]c(-c3ccc(O)cc3)cn1-2 [f-Coelenterazine] | – | – | 65.3 | (71.4) % | – | 19.5 | 11.1 | – | 78.6 | (85.7) % | 78.0 | (68.1) % | 42.3 | (59.0) % | 5.0 | (10) % |
| Oc1ccc(-c2cn3c(O)c(Cc4ccccc4)nc3c(Cc3ccccc3)n2)cc1 [h-Coelenterazine] | – | – | 68.5 | (73.5) % | – | 17.0 | 10.1 | – | 92.6 | (101) % | 24.5 | (16.4) % | 84.0 | (68.0) % | 8.2 | (12.1) % |
| C6d-coelenterazine | – | – | 0.02 | (0.02) % | – | 0.8 | 0.7 | – | 9.0 | (7.7) % | 0.12 | (0.12) % | 0.03 | (0.03) % | 0.8 | (0.8) % |
| bis-coelenterazine | 100 | 38 | 0.04 | (0.03) % | did not exhibit a rapid decay | 10.3 | 9.7 | – | 108 | (102) % | 0.07 | (0.08) % | 0.01 | (0.01) % | 0 | (0) % |
| coelenterazine [Coelenterazine (CTZ)] | 100 | 2 | 100 | (100) % | – | 1.0 | 1.0 | – | 100 | (100) % | 100 | (100) % | 100 | (100) % | 100 | (100) % |
